# Experimental data as given in ChEMBL document CHEMBL5725713, “5-aminopyrazole-4-carboxamide inhibitors of CDPK1 from T. gondii and C. parvum” (2016).
# Biological target: T1, Calmodulin-domain protein kinase 1 (Toxoplasma gondii, UniProt Q9BJF5)
# T1 sequence (Q9BJF5 whole entry): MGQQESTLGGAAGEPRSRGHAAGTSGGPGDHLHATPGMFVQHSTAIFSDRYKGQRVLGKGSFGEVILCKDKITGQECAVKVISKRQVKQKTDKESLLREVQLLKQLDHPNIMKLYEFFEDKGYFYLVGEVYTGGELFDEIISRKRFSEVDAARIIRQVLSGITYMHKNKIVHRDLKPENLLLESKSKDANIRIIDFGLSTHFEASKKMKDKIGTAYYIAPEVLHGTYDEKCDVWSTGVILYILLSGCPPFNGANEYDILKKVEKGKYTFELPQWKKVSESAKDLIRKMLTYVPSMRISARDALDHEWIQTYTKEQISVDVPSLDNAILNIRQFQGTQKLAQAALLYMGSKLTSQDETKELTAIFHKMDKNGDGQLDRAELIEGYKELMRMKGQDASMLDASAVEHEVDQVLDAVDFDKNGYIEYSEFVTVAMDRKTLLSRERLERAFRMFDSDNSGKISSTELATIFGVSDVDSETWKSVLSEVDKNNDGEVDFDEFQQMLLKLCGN
# Assay: Luminescent Kinase Assay: Inhibition of TgCDPK1 and CpCDPK1 was determined using a luminescent kinase assay which measures ATP depletion in the presence of the Syntide 2 peptide substrate (KinaseGlo). For description of the methods and assays, see WO 2011/094628, incorporated by reference herein.
compound,measurement,value
CC(C)(C)n1cc(C(N)=O)c(-c2ccc3c(N)n[nH]c3c2)n1,IC50,40 nM
